Reference: US6355614B1, “Cyclic boroproline compounds” (Point Therapeutics, priority 1998, dated 2002)

Test: Conformational equilibrium of open chain and cyclic forms in aqueous solution (from apparent Ki at equilibrium vs true Ki)
Assay type: physicochemical
Conditions: at equilibrium at pH 7.0
Description: See FIG. 3 which is a diagram showing the structures of the open and cyclized forms of Xaa-boroPro inhibitors (conformational equilibrium of Xaa-boroproline inhibitors). The open, active, inhibitory chain species is favored at low pH while the cyclized structure is favored at neutral pH. The reaction is fully reversible: the open chain becomes predominant at low pH. The open chain to cyclic species reaction involves a trans to cis isomerization of the proline and the formation of a new N—B bond. […] G. Gutheil and W. W. Bachovchin, Separation of L-Pro-DL-boroPro into Its Component Diastereomers and Kinetic Analysis of Their Inhibition of Dipeptidyl Peptidase IV. A New Method for the Analysis of Slow, Tight-Binding Inhibition, Biochemistry 32, 8723-8731 (1993)).

Compound | fraction existing as the open chain, inhibitory species
O=C(C1CCCN1)N1CCCC1B(O)O (centres unmarked) [Pro-boroPro] | less than 1%
CC(C)C(N)C(=O)N1CCCC1B(O)O (centres unmarked) [Val-boroPro] | less than 0.1%
